Reference: ChEMBL document CHEMBL3259619, “Antibacterial activity of a series of N2,N4-disubstituted quinazoline-2,4-diamines” (J Med Chem, 2014)
Converted amounts (≈) assume the structure as drawn. The source made the active and inactive calls.

Assays:
[1] = system: Staphylococcus aureus; assay: Antimicrobial activity against methicillin-resistant Staphylococcus aureus CBD-635 assessed as zone of inhibition at 5 mg/ml after 24 hrs by disk diffusion assay; type: functional; conditions: for zone of inhibition at 5000 µg/mL: CBD-635, 24 h, read-out: IZ
[2] = system: Staphylococcus aureus; assay: Antimicrobial activity against methicillin-resistant Staphylococcus aureus CBD-635 assessed as complete inhibition of bacterial growth after overnight incubation; type: functional
[3] = system: Staphylococcus aureus; assay: Antimicrobial activity against methicillin-resistant Staphylococcus aureus CBD-635 assessed as complete inhibition of bacterial growth at 5 times MIC after overnight incubation in presence of tetrahydrofolic acid; type: functional, organism-based
[4] = system: Staphylococcus aureus; assay: Antimicrobial activity against N2,N4-dibenzylquinazoline-2,4-diamine-induced methicillin-resistant Staphylococcus aureus CBD-635 mutant M1 assessed as complete inhibition of bacterial growth after overnight incubation; type: functional
[5] = system: Staphylococcus aureus; assay: Antimicrobial activity against N2,N4-dibenzylquinazoline-2,4-diamine-induced methicillin-resistant Staphylococcus aureus CBD-635 mutant M2 assessed as complete inhibition of bacterial growth after overnight incubation; type: functional
[6] = system: Staphylococcus aureus; assay: Antimicrobial activity against N2,N4-dibenzylquinazoline-2,4-diamine-induced methicillin-resistant Staphylococcus aureus CBD-635 mutant M3 assessed as complete inhibition of bacterial growth after overnight incubation; type: functional
[7] = system: Staphylococcus aureus; assay: Antimicrobial activity against N2,N4-dibenzylquinazoline-2,4-diamine-induced methicillin-resistant Staphylococcus aureus CBD-635 mutant M4 assessed as complete inhibition of bacterial growth after overnight incubation; type: functional
[8] = system: Staphylococcus aureus; assay: Antimicrobial activity against N2,N4-dibenzylquinazoline-2,4-diamine-induced methicillin-resistant Staphylococcus aureus CBD-635 mutant M5 assessed as complete inhibition of bacterial growth after overnight incubation; type: functional
[9] = system: Staphylococcus aureus; assay: Antimicrobial activity against N2,N4-dibenzylquinazoline-2,4-diamine-induced methicillin-resistant Staphylococcus aureus CBD-635 mutant M6 assessed as complete inhibition of bacterial growth after overnight incubation; type: functional
[10] = system: Staphylococcus aureus; assay: Antimicrobial activity against N2,N4-dibenzylquinazoline-2,4-diamine-induced methicillin-resistant Staphylococcus aureus CBD-635 mutant M7 assessed as complete inhibition of bacterial growth after overnight incubation; type: functional

Compound | zone of inhibition at 5000 µg/mL [1] | MIC [2] | inhibition [3] | inhibition zone (IZ) [1] | further results
CNc1nc(NCc2ccco2)nc2ccccc12 | 10 mm | 390 µM (≈ 99.2 µg/mL) | inactive |  | 
Clc1ccc(CNc2nc(NCc3ccc(Cl)cc3)c3ccc(Cl)cc3n2)cc1 |  | 68 µM (≈ 30.2 µg/mL) | inactive |  | 
CNc1nc(NCc2ccco2)c2ccccc2n1 |  |  | inactive | inactive | 
Cc1ccc2c(NCc3ccco3)nc(NC(C)C)nc2c1 |  |  | inactive | inactive | 
c1coc(CNc2nc(NC3CCCCC3)nc3ccccc23)c1 | 10 mm | 78 µM (≈ 25.1 µg/mL) | inactive |  | 
COc1cccc2c(NCc3ccco3)nc(NC(C)C)nc12 |  |  | inactive | inactive | 
Cc1ccc2nc(NC(C)C)nc(NCc3ccco3)c2c1 |  |  | inactive | inactive | 
CCOC(=O)CNc1nc(NC(C)C)nc2ccccc12 |  |  | inactive | inactive | 
CNc1nc(NC2CCCC2)nc2ccccc12 |  |  | inactive | inactive | 
CC(C)Nc1nc(N(C)C)c2ccccc2n1 |  |  | inactive | inactive | 
CC(C)Nc1nc(NCc2ccccc2)nc2ccccc12 | 13 mm | 34 µM (≈ 9.94 µg/mL) | inactive |  | 
Clc1ccc2c(NCc3ccccc3)nc(NCc3ccccc3)nc2c1 |  | 27 µM (≈ 10.1 µg/mL) | inactive |  | MIC [4]: 27 µM (≈ 10.1 µg/mL); MIC [5]: 27 µM (≈ 10.1 µg/mL); MIC [6]: 2.7 µM (≈ 1.01 µg/mL); MIC [7]: 2.7 µM (≈ 1.01 µg/mL); MIC [8]: 2.7 µM (≈ 1.01 µg/mL); MIC [9]: 2.7 µM (≈ 1.01 µg/mL); MIC [10]: 2.7 µM (≈ 1.01 µg/mL)
c1coc(CNc2nc(NC3CCCC3)nc3ccccc23)c1 | 12 mm | 160 µM (≈ 49.3 µg/mL) | inactive |  | 
COc1ccc(CNc2nc(NCc3ccc(OC)cc3)c3ccccc3n2)cc1 |  | 25 µM (≈ 10 µg/mL) | inactive |  | MIC [4]: > 250 µM; MIC [5]: > 250 µM; MIC [6]: > 250 µM; MIC [7]: > 250 µM; MIC [8]: 125 µM (≈ 50.1 µg/mL); MIC [9]: 125 µM (≈ 50.1 µg/mL); MIC [10]: > 250 µM
Clc1ccc(CNc2nc(NCc3ccccc3)nc3ccccc23)cc1 |  | 67 µM (≈ 25.1 µg/mL) | inactive |  | MIC [4]: 2.7 µM (≈ 1.01 µg/mL); MIC [5]: 2.7 µM (≈ 1.01 µg/mL); MIC [6]: 2.7 µM (≈ 1.01 µg/mL); MIC [7]: 2.7 µM (≈ 1.01 µg/mL); MIC [8]: 2.7 µM (≈ 1.01 µg/mL); MIC [9]: 2.7 µM (≈ 1.01 µg/mL); MIC [10]: 2.7 µM (≈ 1.01 µg/mL)
CC(C)(C)Nc1nc(NCc2ccco2)c2ccccc2n1 | 9 mm | 340 µM (≈ 101 µg/mL) | inactive |  | 

Compound | zone of inhibition at 5000 µg/mL [1] | MIC [2] | inhibition [3] | inhibition zone (IZ) [1] | further results
Clc1ccc(Nc2nc(NCc3ccco3)nc3ccccc23)cc1 | 10 mm | 29 µM (≈ 10.2 µg/mL) | inactive |  | 
CC(C)Nc1nc(NCCO)nc2ccccc12 |  |  | inactive | inactive | 
OCCNc1nc(NCc2ccco2)c2ccccc2n1 |  |  | inactive | inactive | 
CC(C)Nc1nc(NC2CC2)c2ccccc2n1 |  |  | inactive | inactive | 
COc1ccc2nc(NC(C)C)nc(NCc3ccco3)c2c1 | 10 mm | 80 µM (≈ 25 µg/mL) | inactive |  | 
Clc1ccc(Nc2nc(NCc3ccco3)c3ccccc3n2)cc1 | 10 mm | 29 µM (≈ 10.2 µg/mL) | inactive |  | 
Cc1ccc(Nc2nc(NCc3ccco3)c3ccccc3n2)cc1 | 9 mm | 30 µM (≈ 9.91 µg/mL) | inactive |  | 
CC(C)Nc1nc(NCc2ccccc2)c2ccccc2n1 | 13 mm | 34 µM (≈ 9.94 µg/mL) | inactive |  | 
CNc1nc(NC(C)C)nc2ccccc12 |  |  | inactive | inactive | 
Cc1cccc2c(NCc3ccco3)nc(NC(C)C)nc12 | 10 mm | 340 µM (≈ 101 µg/mL) | inactive |  | 
CC(C)Nc1nc(NC2CCCC2)nc2ccccc12 | 8 mm | 190 µM (≈ 51.4 µg/mL) | inactive |  | 
c1coc(CNc2nc(NC3CC3)nc3ccccc23)c1 |  |  | inactive | inactive | 
CC(C)Nc1nc(NCc2ccco2)c2ccccc2n1 | 10 mm | 180 µM (≈ 50.8 µg/mL) | inactive |  | 
CNc1nc(NC)c2ccccc2n1 |  |  | inactive | inactive | 
CC(C)Nc1nc(NCC(F)(F)F)c2ccccc2n1 |  |  | inactive | inactive | 
CCNc1nc(NCc2ccco2)c2ccccc2n1 |  |  | inactive | inactive | 
